{"source": "PubChem BioAssay AID1259407", "about": "(Chemical Carcinogenesis Research Information System (CCRIS), 2018)", "test_system": "CCRIS mutagenicity, Ames/micronucleus/aberration tests", "assay": "CCRIS mutagenicity studies", "key": {"[1]": {"details": "Test System: AMES SALMONELLA TYPHIMURIUM, Strain/Indicator: TA1535, Metabolic Activation: NONE, Method: PREINCUBATION"}}, "note": "The source made the active and inactive calls. No rule for the calls is given here."}
{"smiles": "[O]=[Ce]=[O]", "values": [{"measurement": "mutagenic call", "setting": "Test System: AMES SALMONELLA TYPHIMURIUM, Strain/Indicator: TA98, Metabolic Activation: NONE, Method: PREINCUBATION", "value": "inactive; negative"}, {"measurement": "mutagenic call", "setting": "Test System: AMES SALMONELLA TYPHIMURIUM, Strain/Indicator: TA98, Metabolic Activation: RAT, LIVER, S-9, KC 500, Method: PREINCUBATION", "value": "inactive; negative"}, {"measurement": "mutagenic call", "setting": "Test System: AMES SALMONELLA TYPHIMURIUM, Strain/Indicator: TA100, Metabolic Activation: NONE, Method: PREINCUBATION", "value": "inactive; negative"}, {"measurement": "mutagenic call", "setting": "Test System: AMES SALMONELLA TYPHIMURIUM, Strain/Indicator: TA100, Metabolic Activation: RAT, LIVER, S-9, KC 500, Method: PREINCUBATION", "value": "inactive; negative"}, {"measurement": "mutagenic call", "setting": "[1]", "value": "inactive; negative"}, {"measurement": "mutagenic call", "setting": "Test System: AMES SALMONELLA TYPHIMURIUM, Strain/Indicator: TA1535, Metabolic Activation: RAT, LIVER, S-9, KC 500, Method: PREINCUBATION", "value": "inactive; negative"}, {"measurement": "mutagenic call", "setting": "Test System: AMES SALMONELLA TYPHIMURIUM, Strain/Indicator: TA1537, Metabolic Activation: NONE, Method: PREINCUBATION", "value": "inactive; negative"}, {"measurement": "mutagenic call", "setting": "Test System: AMES SALMONELLA TYPHIMURIUM, Strain/Indicator: TA1537, Metabolic Activation: RAT, LIVER, S-9, KC 500, Method: PREINCUBATION", "value": "inactive; negative"}, {"measurement": "mutagenic call", "setting": "Test System: AMES SALMONELLA TYPHIMURIUM, Strain/Indicator: TA1538, Metabolic Activation: NONE, Method: PREINCUBATION", "value": "inactive; negative"}, {"measurement": "mutagenic call", "setting": "Test System: AMES SALMONELLA TYPHIMURIUM, Strain/Indicator: TA1538, Metabolic Activation: RAT, LIVER, S-9, KC 500, Method: PREINCUBATION", "value": "inactive; negative"}, {"measurement": "mutagenic call", "setting": "Test System: E. COLI, Strain/Indicator: WP2 UVRA, Metabolic Activation: NONE, Method: PREINCUBATION", "value": "inactive; negative"}, {"measurement": "mutagenic call", "setting": "Test System: E. COLI, Strain/Indicator: WP2 UVRA, Metabolic Activation: RAT, LIVER, S-9, KC 500, Method: PREINCUBATION", "value": "inactive; negative"}]}
{"smiles": "CN(C)/N=N/c1nc[nH]c1C(N)=O", "values": [{"measurement": "mutagenic call", "setting": "Test System: AMES SALMONELLA TYPHIMURIUM, Strain/Indicator: G46, Metabolic Activation: NONE, Method: STANDARD PLATE", "value": "inactive; negative"}, {"measurement": "mutagenic call", "setting": "Test System: AMES SALMONELLA TYPHIMURIUM, Strain/Indicator: G46, Metabolic Activation: RAT, LIVER, S-9, PHENOBARBITAL, Method: STANDARD PLATE", "value": "active; positive"}, {"measurement": "mutagenic call", "setting": "Test System: AMES SALMONELLA TYPHIMURIUM, Strain/Indicator: TA92, Metabolic Activation: NONE, Method: STANDARD PLATE", "value": "active; positive"}, {"measurement": "mutagenic call", "setting": "Test System: AMES SALMONELLA TYPHIMURIUM, Strain/Indicator: TA92, Metabolic Activation: RAT, LIVER, S-9, PHENOBARBITAL, Method: STANDARD PLATE", "value": "active; positive"}, {"measurement": "mutagenic call", "setting": "Test System: AMES SALMONELLA TYPHIMURIUM, Strain/Indicator: TA97, Metabolic Activation: HAMSTER, LIVER, S-9, AROCLOR 1254 (10%), Method: PREINCUBATION", "value": "active; positive"}, {"measurement": "mutagenic call", "setting": "Test System: AMES SALMONELLA TYPHIMURIUM, Strain/Indicator: TA97, Metabolic Activation: NONE, Method: PREINCUBATION", "value": "active; positive"}, {"measurement": "mutagenic call", "setting": "Test System: AMES SALMONELLA TYPHIMURIUM, Strain/Indicator: TA97, Metabolic Activation: RAT, LIVER, S-9, AROCLOR 1254 (10%), Method: PREINCUBATION", "value": "active; positive"}, {"measurement": "mutagenic call", "setting": "Test System: AMES SALMONELLA TYPHIMURIUM, Strain/Indicator: TA98, Metabolic Activation: HAMSTER, LIVER, S-9, AROCLOR 1254 (10%), Method: PREINCUBATION", "value": "active; positive"}, {"measurement": "mutagenic call", "setting": "Test System: AMES SALMONELLA TYPHIMURIUM, Strain/Indicator: TA98, Metabolic Activation: RAT, LIVER, S-9, AROCLOR 1254 (10%), Method: PREINCUBATION", "value": "active; positive"}, {"measurement": "mutagenic call", "setting": "Test System: AMES SALMONELLA TYPHIMURIUM, Strain/Indicator: TA98, Metabolic Activation: S-9, Method: PREINCUBATION", "value": "inactive; negative"}, {"measurement": "mutagenic call", "setting": "Test System: AMES SALMONELLA TYPHIMURIUM, Strain/Indicator: TA100, Metabolic Activation: HAMSTER, LIVER, S-9, AROCLOR 1254 (10%), Method: PREINCUBATION", "value": "active; positive"}, {"measurement": "mutagenic call", "setting": "Test System: AMES SALMONELLA TYPHIMURIUM, Strain/Indicator: TA100, Metabolic Activation: NONE, Method: STANDARD PLATE", "value": "active; positive"}, {"measurement": "mutagenic call", "setting": "Test System: AMES SALMONELLA TYPHIMURIUM, Strain/Indicator: TA100, Metabolic Activation: RAT, LIVER, S-9, AROCLOR 1254 (10%), Method: PREINCUBATION", "value": "active; positive"}, {"measurement": "mutagenic call", "setting": "Test System: AMES SALMONELLA TYPHIMURIUM, Strain/Indicator: TA100, Metabolic Activation: RAT, LIVER, S-9, PHENOBARBITAL, Method: STANDARD PLATE", "value": "active; positive"}, {"measurement": "mutagenic call", "setting": "Test System: AMES SALMONELLA TYPHIMURIUM, Strain/Indicator: TA100, Metabolic Activation: S-9, Method: PREINCUBATION", "value": "inactive; negative"}, {"measurement": "mutagenic call", "setting": "Test System: AMES SALMONELLA TYPHIMURIUM, Strain/Indicator: TA1535, Metabolic Activation: HAMSTER, LIVER, S-9, AROCLOR 1254 (10%), Method: PREINCUBATION", "value": "active; positive"}, {"measurement": "mutagenic call", "setting": "[1]", "value": "inactive; negative"}, {"measurement": "mutagenic call", "setting": "Test System: AMES SALMONELLA TYPHIMURIUM, Strain/Indicator: TA1535, Metabolic Activation: RAT, LIVER, S-9, AROCLOR 1254 (10%), Method: PREINCUBATION", "value": "active; positive"}, {"measurement": "mutagenic call", "setting": "Test System: E. COLI, Strain/Indicator: TM6, Metabolic Activation: NONE, Method: STANDARD PLATE", "value": "active; positive"}, {"measurement": "mutagenic call", "setting": "Test System: E. COLI, Strain/Indicator: TM6, Metabolic Activation: RAT, LIVER, S-9, PHENOBARBITAL, Method: STANDARD PLATE", "value": "active; positive"}, {"measurement": "mutagenic call", "setting": "Test System: E. COLI, Strain/Indicator: TM9, Metabolic Activation: NONE, Method: STANDARD PLATE", "value": "active; positive"}, {"measurement": "mutagenic call", "setting": "Test System: E. COLI, Strain/Indicator: TM9, Metabolic Activation: RAT, LIVER, S-9, PHENOBARBITAL, Method: STANDARD PLATE", "value": "active; positive"}, {"measurement": "mutagenic call", "setting": "Test System: E. COLI, Strain/Indicator: WP2, Metabolic Activation: NONE, Method: STANDARD PLATE", "value": "active; positive"}, {"measurement": "mutagenic call", "setting": "Test System: E. COLI, Strain/Indicator: WP2, Metabolic Activation: RAT, LIVER, S-9, PHENOBARBITAL, Method: STANDARD PLATE", "value": "active; positive"}, {"measurement": "mutagenic call", "setting": "Test System: E. COLI, Strain/Indicator: WP2 UVRA, Metabolic Activation: NONE, Method: STANDARD PLATE", "value": "active; positive"}, {"measurement": "mutagenic call", "setting": "Test System: E. COLI, Strain/Indicator: WP2 UVRA, Metabolic Activation: RAT, LIVER, S-9, PHENOBARBITAL, Method: STANDARD PLATE", "value": "active; positive"}]}
